Results published in publication PMC4401096 (Scientific Reports, 2015).
Read-outs that look alike come from different tables or passages of the source.

Tests used:
[1] = 16-O-Glucuronide (M-2), PLMs
[2] = 3-O-Glucuronide (M-1), TLMs
Experimental: (§1) The standard incubation system for the UGT reaction included HLMs (5 mg of protein/mL), UDPGA (40 mM), Tris-HCl buffer (pH 7.4), MgCl2 (50 mM), 25 μg/mL alamethicin, and substrates in a final volume of 200 μL. The volume of organic solvent was less than 1%. After 60 min of incubation at 37°C, the reaction was terminated by adding 0.1 mL of methanol. The sample was then centrifuged at 20,000 g for 20 minutes to obtain the supernatant for LC-UV-ESI analysis.
(§2) To ensure that less than 10% of the substrate was metabolized in all incubations, different incubation times and protein concentration conditions were selected with 60 min of incubation and 0.15 to 0.75 mg of protein, to confirm the linear interval of metabolite turnover rates. The kinetic models used for analysis were Michaelis–Menten kinetics (eq. 1), biphasic kinetics (eq. 2) and inhibition kinetics (eq. 3)[32]. [drawing 1] [drawing 2] […] Ksi is the constant describing the substrate inhibition interaction. All of the incubations were performed in three independent experiments in duplicate. Kinetic constants were obtained using Origin 7.5 (OriginLab Corp., Northampton, MA) and were reported as the mean ± standard error (S.E.) of the parameter estimate.

[3] = MLMs
Experimental: as §1, §2

[4] = HLMs
Experimental: as §1, §2

[5] = RLMs
Experimental: as §1, §2

[6] = Species comparison of DACB glucuronidation in animal liver microsomes; type: in vitro ADME
[7] = DLMs
Experimental: as §1, §2

[8] = M-2 (16-O-glucuronidation), HIMs
Experimental: as §1, §2

[9] = molecular target: T1, UGT1A3 (Homo sapiens, UniProt P35503)
T1 sequence (P35503 29-534): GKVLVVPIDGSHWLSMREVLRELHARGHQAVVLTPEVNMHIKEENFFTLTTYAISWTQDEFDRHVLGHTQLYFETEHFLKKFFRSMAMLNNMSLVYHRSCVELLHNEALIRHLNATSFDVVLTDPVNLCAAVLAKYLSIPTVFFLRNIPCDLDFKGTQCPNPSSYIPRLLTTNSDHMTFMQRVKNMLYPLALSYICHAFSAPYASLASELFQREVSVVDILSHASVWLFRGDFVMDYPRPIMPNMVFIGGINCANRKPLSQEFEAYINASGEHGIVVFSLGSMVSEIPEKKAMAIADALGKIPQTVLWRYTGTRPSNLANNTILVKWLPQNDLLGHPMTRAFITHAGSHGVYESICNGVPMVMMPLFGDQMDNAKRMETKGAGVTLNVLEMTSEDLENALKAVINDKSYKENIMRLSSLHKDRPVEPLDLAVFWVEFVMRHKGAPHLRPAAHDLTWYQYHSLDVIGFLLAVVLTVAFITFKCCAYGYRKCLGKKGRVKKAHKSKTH
Experimental: (§3) All of the incubations were performed for 60 min using HLMs with a concentration of 0.3 mg of protein/mL, 0.05 mg of protein/mL for UGT1A3 and 0.25 mg of protein/mL for UGT1A4. Similarly, for the UGT1A4 isoform, hecogenin (1–80 μM) was used as a specific inhibitor to determine the differences of inhibition effects between HLMs and UGT1A4.

[10] = molecular target: T2, UGT1A4 (Homo sapiens, UniProt P22310)
T2 sequence (P22310 29-534): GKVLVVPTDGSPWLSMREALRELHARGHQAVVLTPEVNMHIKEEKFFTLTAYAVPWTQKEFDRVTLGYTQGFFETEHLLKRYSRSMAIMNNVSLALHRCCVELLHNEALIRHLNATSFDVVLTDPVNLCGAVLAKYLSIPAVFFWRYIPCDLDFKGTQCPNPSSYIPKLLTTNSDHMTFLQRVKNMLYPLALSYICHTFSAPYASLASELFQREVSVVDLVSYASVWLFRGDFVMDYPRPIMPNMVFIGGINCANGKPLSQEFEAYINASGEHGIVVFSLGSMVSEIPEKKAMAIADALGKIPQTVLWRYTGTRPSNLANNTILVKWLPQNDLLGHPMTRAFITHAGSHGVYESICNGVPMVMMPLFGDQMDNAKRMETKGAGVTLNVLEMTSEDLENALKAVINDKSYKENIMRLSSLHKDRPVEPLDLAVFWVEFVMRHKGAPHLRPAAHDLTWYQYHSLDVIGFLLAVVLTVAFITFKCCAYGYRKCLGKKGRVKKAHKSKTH
Experimental: as §3

[11] = animal species liver microsomes
[12] = liver microsomes of various species

C[C@]12CC[C@H](O)C[C@H]1CC[C@@H]1[C@@H]2CC[C@]2(C)[C@@H](c3ccc(=O)oc3)[C@@H](O)[C@H]3O[C@]132 [DACB, desacetylcinobufagin]
Vmax [1]: 0.032 ± 0.001 nmol/min/mg
Km [2]: 63.6 ± 5.33 µM
Vmax [2]: 0.106 ± 0.002 nmol/min/mg
Vmax ([3]; 3-O-Glucuronide (M-1)): 0.174 ± 0.008 nmol/min/mg
Vmax ([3]; 16-O-Glucuronide (M-2)): 0.288 ± 0.002 nmol/min/mg
Vmax ([4]; M-1 (3-O-glucuronidation)): 0.061 ± 0.002 nmol/min/mg
Vmax ([4]; M-2 (16-O-glucuronidation)): 0.074 ± 0.004 nmol/min/mg
Vmax ([5]; 3-O-Glucuronide (M-1)): 0.107 ± 0.002 nmol/min/mg
Vmax ([5]; 16-O-Glucuronide (M-2)): 0.018 ± 0.001 nmol/min/mg
order of CLint activities of UGT1A3, M-2 formation [6, 11]: MLM > RLM > PLM > DLM
order of UGT1A4 activities by CLint values, M-1 formation [6, 11]: Rabbit > Monkey > Mouse > Dog > Pig
occurrence of 3-O-glucuronidation in species [6, 12]: occurs in DLMs, MLMs, MsLMs, RLMs and TLMs
occurrence of 16-O-glucuronidation in species [6, 12]: can occur in all species except RtLMs
Vmax ([7]; 3-O-Glucuronide (M-1), biphasic kinetics, first line): 0.005 ± 0.001 nmol/min/mg
Vmax ([7]; 3-O-Glucuronide (M-1), biphasic kinetics, second line): 0.009 ± 0.001 nmol/min/mg
Vmax ([7]; 16-O-Glucuronide (M-2)): 0.111 ± 0.010 nmol/min/mg
Vmax [8]: 0.007 ± 0.002 nmol/min/mg

CC1(C)[C@@H](O)CC[C@]2(C)[C@H]3C(=O)C=C4[C@@H]5C[C@@](C)(C(=O)O)CC[C@]5(C)CC[C@@]4(C)[C@]3(C)CC[C@@H]12 [glycyrrhetinic acid]
inhibition of the formation of M-2 (16-O-glucuronate) [9]: significantly inhibited
IC50 values for M-2 formation, UGT1A3 compared with HLMs ([9]; glycyrrhetinic acid 0–60 μM, UGT1A3 and HLMs): equal

CN1CCN(CCCN2c3ccccc3Sc3ccc(C(F)(F)F)cc32)CC1 [TFP, trifluoperazine]
inhibition of the 3-O-glucuronidation of DACB [10]: significantly inhibit

hecogenin
inhibition of the 3-O-glucuronidation of DACB [10]: significantly inhibit
IC50 values for M-1 formation, UGT1A4 compared with HLMs ([10]; hecogenin 1–80 μM, UGT1A4 and HLMs): similar
